Source: patent US5407815A, “R-(-)-1-(5-hydroxyhexyl)-3-methyl-7-propylxanthine, a process for its preparation and pharmaceuticals containing this compound” (Hoechst Aktiengesellschaft, priority 1989, dated 1995)

Key:
[1] = test system: regional cerebral blood flow; assay: Regional cerebral blood flow of the cat, heat conductivity technique (heat transport number λ); assay type: in vivo; conditions: for duration of action as the half life t1/2 / Δλ% (mean percentage change of the heat transport number): anesthetized cat, 25 mg/kg intraduodenally; for Δλ% (mean percentage change of the heat transport number): suspension in 1% carboxymethylcellulose, n = 6 to 11; for conversion factor (f), based on Δλ%=1 for the racemate: intraduodenal, 25 mg/kg; for cerebral blood flow-stimulating action relative to racemate: racemate made equal to 1
Method: The action of compound 1 according to the invention on the regional cerebral blood flow was investigated in comparison with the racemate 2 and the S-(+)-enantiomer 3 with the aid of the heat conductivity technique according to F. A. Gibbs (Proc. Soc. exp. Biol. (N.Y.) 31 (1933), pp. 141 et seq.), H. Hensel (Naturwissenschaften 43 (1956), pp. 477 et seq.) and E. Betz (Acta Neurol. Scand. Suppl. 14 (1965), pp. 29-37) in cats of both sexes under sodium pentobarbital anesthesia (35 mg/kg i.p.). In this method, with the aid of a heat conductivity probe applied to the surface of the brain in the region of the Gyrus marginalis frontalis, the transport of heat from a point of heating to an adjacent temperature-measuring site in the probe, which is directly proportional to the level of the cerebral blood flow, is determined. The mean percentage change in the heat transport number λ after administration of the preparation is used as a measure of the increase in blood flow.
The compounds were administered intraduodenally as a suspension in 1% strength aqueous carboxymethylcellulose. The dose was 25 mg of test substance per kg of body weight. 6 to 11 individual experiments were carried out for each test preparation and the mean percentage change in the heat transport number (Δλ%) was determined from the measurement data obtained.
The melting points m.p., the enantiomeric purities e.e. (enantiomeric excess), the number of measurements n, the mean percentage change (Δλ%) of the heat transport number as a measure of the potency, the conversion factors f, based on Δλ%=1 for the racemate, and the duration of action as the half life t1/2 (min) for R-(-)-1-(5-hydroxyhexyl)-3-methyl-7-propylxanthine (1), the corresponding enantiomer S-(+)-1-(5-hydroxyhexyl)-3-methyl-7-propylxanthine (3) and the racemate (2) of the two compounds is indicated in Table 1.

cerebral blood flow = conditions: known from DE-C-2,366,527; cited from earlier work

SMILES | duration of action as the half life t1/2 [1] [h] | Δλ% (mean percentage change of the heat transport number) [1] | conversion factor (f), based on Δλ%=1 for the racemate [1] | cerebral blood flow-stimulating action relative to racemate [1] | cerebral blood flow-stimulating action (qualitative) (cerebral blood flow) | cerebral blood flow-stimulating action of R-(-)-enantiomer relative to S-(+)-antipode ([1]; ratio R-(-) to S-(+)) | duration of action of R-(-)-compound relative to S-(+)-compound ([1]; ratio R-(-) to S-(+))
CCCn1cnc2c1c(=O)n(CCCCC(C)O)c(=O)n2C (racemic) [Compound 2, 1-(5-hydroxyhexyl)-3-methyl-7-propylxanthine] | 1.67 | +24% | 1.00 | 1 | cerebral blood flow-stimulating action |  | 
CCCn1cnc2c1c(=O)n(CCCC[C@@H](C)O)c(=O)n2C [Compound 1, R-(-)-1-(5-hydroxyhexyl)-3-methyl-7-propylxanthine] | 1.67 | +45% | 1.88 | about 2 |  | about three | about three
CCCn1cnc2c1c(=O)n(CCCC[C@H](C)O)c(=O)n2C [Compound 3, S-(+)-1-(5-hydroxyhexyl)-3-methyl-7-propylxanthine] | 0.6 | +16% | 0.67 | about 0.65 |  |  | 
